“Also recorded” adds a separate entry of the source.
What was measured:
Assay type in all cases: cell-based, human
induced PSC (iPSC) line = assay: Induction of CDX2-expressing axial progenitors in an induced PSC line; conditions: CHIR increased from 3 to 4 μM
Experimental: Human PSC embryoid body-based differentiation was performed as previously described (Maury et al., 2015). hPSC were dissociated with cold Accutase (Life Technologies) for 3 to 5 min at 37° C. and resuspended in differentiation medium N2B27 (Advanced DMEM F12, Neurobasal vol:vol (Life Technologies)), supplemented with N2 (Life Technologies), B27 without Vitamin A (Life technologies), penicillin/streptomycin 1%, β-Mercaptoéthanol 0.1% (Life Technologies), with Y-27632 (10 μM, Stemgent or Stem Cell Technologies), CHIR-99021 (3 μM or 4 μM Selleckchem) SB431542 (20 μM, Selleckchem) and LDN 193189 (0.1 μM, Selleckchem). 2×10^5 cells ml^-1 were seeded in ultra-low attachment 6 well plates (Corning) to form embryoid bodies (EBs). All conditions of differentiation received the same medium at day 2 and at day 3 but SB431542 was removed at day 3. Then, the differentiation proceeded according to the […] presented above the figures. SAG (Smoothened Agonist, Merck millipore), FGF2 (Recombinant Human FGF basic, Peprotech), RA (Sigma-Aldrich), GDF11 (Recombinant Human/Murine/Rat GDF11, Peprotech), PD0325901 (Selleckchem), PD173074, SCH772984 (Selleckchem), DAPT (Stemgent) were added at indicated time points. For concentrations see Table S2. Media were changed every other day unless specified. […]

[1] = tested on: hPSC-derived axial progenitors; assay: Motor neuron (MN) subtype specification: immunostaining of embryoid bodies on day 14 of differentiation, proportion of MNs (ISL1+ cells) expressing HOX/FOXP1/SCIP markers; conditions: for rostro-caudal identity of MNs generated: inhibitor added at D3 up to D7, RA/SAG at D7; for efficiency of MN generation: inhibitor from D3 to D7, RA/SAG at D7; for MN identities induced: extrinsic cue added on D3 with RA/SAG, all concentrations and durations
Experimental: (§1) Human PSC embryoid body-based differentiation was performed as previously described (Maury et al., 2015). hPSC were dissociated with cold Accutase (Life Technologies) for 3 to 5 min at 37° C. and resuspended in differentiation medium N2B27 (Advanced DMEM F12, Neurobasal vol:vol (Life Technologies)), supplemented with N2 (Life Technologies), B27 without Vitamin A (Life technologies), penicillin/streptomycin 1%, β-Mercaptoéthanol 0.1% (Life Technologies), with Y-27632 (10 μM, Stemgent or Stem Cell Technologies), CHIR-99021 (3 μM or 4 μM Selleckchem) SB431542 (20 μM, Selleckchem) and LDN 193189 (0.1 μM, Selleckchem). 2×10^5 cells ml^−1 were seeded in ultra-low attachment 6 well plates (Corning) to form embryoid bodies (EBs). All conditions of differentiation received the same medium at day 2 and at day 3 but SB431542 was removed at day 3. Then, the differentiation proceeded according to the schemas presented above the figures. SAG (Smoothened Agonist, Merck millipore), FGF2 (Recombinant Human FGF basic, Peprotech), RA (Sigma-Aldrich), GDF11 (Recombinant Human/Murine/Rat GDF11, Peprotech), PD0325901 (Selleckchem), PD173074, SCH772984 (Selleckchem), DAPT (Stemgent) were added at indicated time points. For concentrations see Table S2. Media were changed every other day unless specified.
EBs were collected, rinsed with PBS then fixed with 4% PFA for 5 min at 4° C. and rinsed with PBS 3 times for 5 min. EBs were cryoprotected with 30% sucrose and embedded in OCT (Leica) prior sectioning with a cryostat. Alternatively, day 2, 3 and 4 progenitors were plated on Matrigel (Corning, diluted according to manufacturer recommendation) coated coverslips and let to adhere between for 30 min prior fixation with 4% PFA for 5 min at 4° C.
All immunostainings were performed as follow: cells or sections were incubated with a saturation solution (PBS/FBS 10%/0.2% Triton) for 10 minutes. Primary antibodies (Table S3) were diluted in staining solution (PBS/2% FBS/0.2% Triton) and incubated overnight at 4° C. in a humidified chamber. Following 4 PBS washes (10 min each), secondary antibodies (Alexa488, Alexa568 and Alexa647, Life Technologies, 1:1,000) were added for 1 h at RT. After 3 PBS washes, DAPI was added on the cells (Invitrogen, 1:3,000) for 5 min. Cells or slices were then mounted in Fluoromount (Sigma Aldrich or Cliniscience).
Samples were visualized and imaged using either a ZEISS LSM 880 Confocal Laser Scanning Microscope (Carl Zeiss Microscopy) controlled by Zen black software (Zeiss), a confocal microscope TCS SP5 II (Leica) or a DM6000 microscope (Leica) equipped with CoolSNAP EZ CDD camera, controlled by MetaMorph software (MetaMorph Inc). Alternatively, images were acquired using the automated microscope Cell Discoverer 7 (Zeiss), equipped with an Axiocam 506 m camera, with Zen black software (Zeiss).
All statistics were computed using Graphpad Prism software. One-way analysis of variance (ANOVA) with a Kruskall-Wallis post hoc analysis were performed following normality tests provided by Prism. In all figures, n are independent differentiations started from independent newly thawed hPSCs vials. For each condition at least 4 independent EBs were imaged in which all the cells were quantified by automated image analysis. The images were exported and saved as TIFF with Fiji if needed (Schindelin et al., 2012). Quantitative analyses on images were performed using the CellProfiler software (Carpenter et al., 2006) (Broad Institute open source at www.cellprofiler.org). DAPI stained nucleus were segmented into primary objects using CellProfiler segmentation pipeline and the nuclear mask was used to define objects on the target channels. The threshold to define positive nuclei for a given target was obtained using EBs' section negative for the target of interest. All images across conditions were then automatically analyzed in batch ensuring unbiased analysis. […]

[2] = tested on: HOX genes in hPSC-derived axial progenitors; assay: Real time PCR analysis of HOX mRNAs in progenitors; conditions: for temporal increase of HOXC6, C8 and C9 mRNAs in progenitors: inhibitor at D3, progenitors at D4 and D5
Experimental: as §1
Total RNA were extracted (RNAeasy Plus Mini Kit, Qiagen) and cDNA synthesized using SuperScript III (Invitrogen). Quantitative real-time PCR was performed using a 7900HT fast real time PCR system (Applied Biosystems) with Sybr Green PCR Master Mix (Applied Biosystems). Alternatively performed using QuantStudio 5 Real-Time PCR System (Thermofisher Scientific) and a mix with qPCR Brilliant II SYBR MM with low ROX (Agilent). Primers are listed in Supplementary Table 3. All expression data were normalized to Cyclophilin A mRNA. All analyses were performed with three technical replicates per plate. Relative expression levels were determined by calculating 2-ΔΔCt.

[3] = FGF2 15 ng/ml D3 to D9 together with RA/SAG
[4] = FGF2 60 ng/ml D3 to D9 together with RA/SAG
[5] = FGF2 120 ng/ml for 24 h from D3, with RA/SAG
[6] = FGF2 120 ng/ml for 48 h from D3, with RA/SAG
[7] = GDF11 25 ng/ml for 24 h with RA on D3 progenitors

Molecule: Cc1cnc(-c2cnc(NCCNc3ccc(C#N)cn3)nc2-c2ccc(Cl)cc2Cl)[nH]1 [CHIR, 6-[[2-[[4-(2,4-dichlorophenyl)-5-(5-methyl-1H-imidazol-2-yl)-2 pyrimidinyl]amino]ethyl]amino]-3-pyridinecarbonitrile]
- homogenous population of progenitors expressing CDX2 on D3 (induced PSC (iPSC) line): necessary to generate a homogenous population of progenitors expressing CDX2 on D3

Molecule: CCN(CC)CCCCNc1ncc2cc(-c3cc(OC)cc(OC)c3)c(NC(=O)NC(C)(C)C)nc2n1 [PD173074, reference compound]
- rostro-caudal identity of MNs generated [1]: prevent the specification of HOXC8 and HOXC9 MNs; also recorded: anterior brachial identity (HOXC6)
- number of EBs collected ([1]; inhibitor from D3 to D7): reduced number of EBs
- efficiency of MN generation [1]: not impacted
- temporal increase of HOXC6, C8 and C9 mRNAs in progenitors [2]: prevent the temporal increase in caudal HOX expression

Molecule: O=C(NOC[C@H](O)CO)c1ccc(F)c(F)c1Nc1ccc(I)cc1F [PD0325901, reference compound]
- rostro-caudal identity of MNs generated [1]: anterior brachial identity (HOXC6)
- rostro-caudal identity of MNs generated ([1]; listed as PD032590): prevent the specification of HOXC8 and HOXC9 MNs
- efficiency of MN generation [1]: not impacted
- temporal increase of HOXC6, C8 and C9 mRNAs in progenitors [2]: blocked this increase at D4 or D5
- temporal increase of HOXC6, C8 and C9 mRNAs in progenitors ([2]; listed as PD032590): prevent the temporal increase in caudal HOX expression

Molecule: FGF2: Recombinant Human FGF basic, Peprotech, accession P09038; FGFR agonist
- Caudal brachial HOXC8 MNs [1, 3]: 68.2%
- HOXC8 MNs, fold increase [1, 3]: 8.6 fold
- HOXC9+/HOXC6- thoracic MNs [1, 4]: 58.9%
- HOXC9+/HOXC6- thoracic MNs, fold increase [1, 4]: 82.5 fold
- HOXC6 MNs ([1]; FGF2 120 ng/ml D3 to D9 together with RA/SAG): reduced slightly more HOXC6 MNs
- FOXP1^high/SCIP MNs [1, 5]: 47.9%
- HOXC6 MNs [1, 5]: 49.7%
- HOXC8 MNs [1, 5]: 79.4%
- HOXC9 MNs [1, 5]: 14.7%
- FOXP1^high/SCIP MNs [1, 6]: 13.2%
- HOXC6 MNs [1, 6]: 7.5%
- HOXC9 MNs [1, 6]: 76.4%
- MN identities induced [1]: induce more caudal MN subtypes; also recorded: more caudal MN identities were induced without the need of delaying RA addition
- HOX gene expression compared to RA/SAG controls ([2]; 24 h and 48 h post FGF2 treatment): precocious increase in HOXC8, HOXC9, HOXD9 and HOXC10 expression

B1: GDF11: Recombinant Human/Murine/Rat GDF11, Peprotech; member of the TGFβ family (protein, UniProt O95390 299-407, looked up)
Growth/differentiation factor …: NLGLDCDEHSSESRCCRYPLTVDFEAFGWDWIIAPKRYKANYCSGQCEYMFMQKYPHTHLVQQANPRGSAGPCCTPTKMSPINMLYFNDKQQIIYGKIPGMVVDRCGCS
- caudal thoracic or lumbar identities ([1]; GDF11 25 ng/ml for 24 h or 48 h with RA): none of the more caudal identities were observed
- HOXC8 MNs [1, 7]: 58.7%
- HOXC9 MNs [1, 7]: 41.0%
- anterior thoracic MNs ([1]; GDF11 25 ng/ml for 48 h with RA on D3 progenitors): increasing after 48 h
- MN identities induced [1]: induce more caudal MN subtypes
